Experiments:
[1] = tested on: BEL-7404; assay: MTT cytotoxicity assay, BEL-7404; format: cell-based, human; settings: for inhibitive ratio: BEL-7404, 20 μmol/L, 48 h; for IC50: BEL-7404, 48 h, MTT
Description: (§1) The in vitro cytotoxicity of OD, 1–3 and the corresponding metal salts were determined by MTT assay towards a panel of human tumor cells including HepG2, T-24, BEL-7404, MGC80-3, SK-OV-3/DDP and normal HL-7702 cells. As the positive control, cisplatin was dissolved at a concentration of 1 mM in 0.154 M NaCl[32].
(§2) The human tumor cell lines (BEL-7404, HepG2, MGC80–3, T-24, SK-OV-3/DDP and HeLa cells) and the human normal liver cell line HL-7702 were obtained from Shanghai Cell Bank in Chinese Academy of Sciences. Cells were cultured in Dulbecco’s modified Eagle’s medium (DMEM) or RPMI-1640 medium, which supplemented with 10% fetal bovine serum (FBS) and 100 U/mL penicillin and streptomycin. Cells were cultured at 37 °C in a humidified atmosphere with 5% CO2/95% air. Tested compounds (2.0 mM) were prepared as DMSO stock solution before they were diluted to working concentrations by PBS buffer (containing 0.5% DMSO), while cisplatin dissolved in 0.9% sodium chloride solution was used as positive controls.
(§3) Cells in their logarithmic phase were seeded in 96-well plates with 5.5 × 10^3/180 μL per well for 24 h. Then 20 μL of compounds at various concentrations were added to each well to achieve final concentrations of 1.25, 2.5, 5.0, 10.0, and 20.0 μM. All the cells were incubated with test compounds for another 48 h before MTT assay. Control wells contained media with 0.5% DMSO. After 48 h of cultivation, 10 μL of MTT (5 mg/mL in PBS) was added to each well, and cells were incubated at 37 °C for 6 h. The contents in the wells were pipetted out carefully, and the formazan crystals formed were dissolved in 100 μL of DMSO, and the absorbance was measured by enzyme labeling instrument with 490 nm/630 nm double wavelength measurement. The IC50 value was defined as a drug concentration killing 50% cells in comparison with untreated controls, which was calculated by the Bliss method (n = 5). All tests were repeated in at least three independent trials.

[2] = tested on: SK-OV-3/DDP; assay: MTT cytotoxicity assay, SK-OV-3/DDP; format: cell-based, human; settings: 48 h; for inhibitive ratio: SKOV-3/DDP, 20 μmol/L; for IC50: SK-OV-3/DDP, MTT
Description: as §1, §2, §3

[3] = tested on: MGC80-3; assay: MTT cytotoxicity assay, MGC80-3; format: cell-based, human; settings: for inhibitive ratio: MGC80-3, 20 μmol/L, 48 h; for IC50: MGC80-3, 48 h, MTT
Description: as §1, §2, §3

[4] = tested on: HepG2; assay: MTT cytotoxicity assay, HepG2; format: cell-based, human; settings: for inhibitive ratio: HepG2, 20 μmol/L, 48 h; for IC50: HepG2, 48 h, MTT
Description: as §1, §2, §3

[5] = tested on: HL-7702; assay: MTT cytotoxicity assay, normal liver cells HL-7702; format: cell-based, human; settings: 48 h; for inhibitive ratio: HL-7702, 20 μmol/L; for IC50: HL-7702 normal liver cells, MTT
Description: as §1, §2, §3

[6] = tested on: T-24; assay: MTT cytotoxicity assay, T-24; format: cell-based, human; settings: for inhibitive ratio: T-24, 20 μmol/L, 48 h; for IC50: T-24, 48 h, MTT
Description: as §1, §2, §3

[7] = Body weight of mice in the HepG2 xenograft model; format: in vivo, BALB/c nude mice; settings: 2.0 mg/kg ip every two days; permissible value 20%
Description: To further evaluate the in vivo antitumor efficacy of these complexes, 3 was selected to inhibit tumor growth in a HepG2 xenografts model. The mice were randomized into control group, 3-treated groups and positive control group (n = 6). Once the tumor had grown to an average volume of about 100 mm^3, two group of nude mice were injected intraperitoneally (ip) of 3 at a high dose (6.0 mg/kg) and a low (3.0 mg/kg) dose daily for 20 days, respectively. Cisplatin was used as positive control injected at 2.0 mg/kg every two days, while control group received solvents only.
BALB/c nude mice (male, 17–20 g, 5–6 weeks old) were supplied by Guangxi Medical University Laboratory Animal Centre (Guangxi, China, approval no. SCXK 2014–0002 and SYXK 2014–0003). All of the experimental procedures were carried out according to the NIH Guidelines for the Care and Use of Laboratory Animals. Animal experiments were approved by the Animal Care and Use Committee of Guangxi Medical University. Animal were housed at IVC system (individual ventilated caging) with conditions of constant photoperiod (12 h light/12 h dark at 25−28 °C and 45−65% humidity). The xenograft tumor model was established in the same way as we reported before. […]
The tumor volumes and body weight were measured every 3 days, and tumor size was calculated as volume = (w^2l)/2, where w is the width and l is the length in mm of tumor[70]. […]

[8] = tested on: HepG2 xenograft; assay: HepG2 xenograft nude mice model, tumor growth inhibition; format: in vivo, BALB/c nude mice; settings: 2.0 mg/kg ip every two days
Description: BALB/c nude mice (male, 17–20 g, 5–6 weeks old) were supplied by Guangxi Medical University Laboratory Animal Centre (Guangxi, China, approval no. SCXK 2014–0002 and SYXK 2014–0003). All of the experimental procedures were carried out according to the NIH Guidelines for the Care and Use of Laboratory Animals. Animal experiments were approved by the Animal Care and Use Committee of Guangxi Medical University. Animal were housed at IVC system (individual ventilated caging) with conditions of constant photoperiod (12 h light/12 h dark at 25−28 °C and 45−65% humidity). The xenograft tumor model was established in the same way as we reported before[30]. The maximum solubility of 3 in DMSO/saline solvent (v/v, 5/100) with administration volume 0.8 mL/20 g was used as the high dose (6.0 mg/kg) group (n = 6). Meanwhile low dose group mice got 3.0 mg/kg, intraperitoneal injection every day, and the control group received corresponding solvent. The positive control group was administered with cisplatin at 2.0 mg/kg every two days by intraperitoneal injection (cisplatin dissolved in saline).
The tumor volumes and body weight were measured every 3 days, and tumor size was calculated as volume = (w^2l)/2, where w is the width and l is the length in mm of tumor[70]. On day 21, the mice were sacrificed, and the tumor tissue was dissected out and weighted. The in vivo antitumor activity is evaluated by two indicators[71][72]: the tumor relative increment rate (T/C = TRTV/CRTV × 100%) and tumor weight inhibition rate [IR = (Wc − Wt)/Wc × 100%,], where TRTV and CRTV were the RTV of treated group and control group, respectively (RTV: relative tumor volume, RTV = Vt /V0); Wt and Wc are the average tumor weight of complex-treated and vehicle controlled group, respectively.

[9] = tested on: caspase-8; assay: Caspase-8 activation by flow cytometry (CaspGLOW); format: cell-based, human; settings: HepG2, 1.0 μM, 24 h; control 1.8%
Description: (§4) Caspase family is closely related to the cell apoptosis via the mitochondrial pathway, especially caspases-3, -8 and -9. To better understand the antitumor mechanisms, it needs to confirm whether caspase-3, -8 and -9 are activated when the tumor cells are treated with 1–3.
(§5) The measurement of caspase-3, -8 and -9’s activities was performed by CaspGLOW fluorescein active caspase-3, -8 and -9 staining kit. HepG2 cells were treated with 1 μM 1–3 for 24 h, harvested at a density of 1 × 10^6 cells/mL, and then suspended in 300 μL volume with PBS. To the suspension, 1 μL of caspase-3 inhibitor (FITC-DEVD-FMK), caspase-8 inhibitor (FITC-IETD-FMK) or caspase-9 inhibitor (FITC-LEHD-FMK) was consequently added and incubated for 1 h at 37 °C in 5% CO2 incubator. The cells were then examined by a FACSAria II flow cytometer equipped with a 488 nm argon laser. The results were represented as the percent change on the activity compared with the control.

[10] = tested on: caspase-3; assay: Caspase-3 activation by flow cytometry (CaspGLOW); format: cell-based, human; settings: HepG2, 1.0 μM, 24 h; control 4.2%
Description: as §4, §5

[11] = tested on: HepG2; assay: Cell apoptosis assay by flow cytometry, Annexin V-FITC/PI; format: cell-based, human; settings: HepG2, 5.0 μM, 24 h
Description: The quantitative analysis of apoptotic HepG2 induced by 1–3 (1.0, 2.0 and 5.0 μM) and their corresponding metal salts (5.0 μM) after 24 h treatment, were investigated by flow cytometry and Annexin V-FITC/PI double staining. As depicted in Figs 7 and S6, 1–3 caused a significant increase in apoptotic cells comparing to the untreated cells.
Cell cycle progression and apoptosis were determined by flow cytometric analysis. (a) Cell cycle arrest assay: HepG2 cells in their logarithmic phase were plated into 50 mL plates at a final density of 5−6 × 10^6 cells/well overnight, then they were treated with various doses (0.25, 0.5 and 1.0 μM) of 1–3 for another 24 h. Cells were trypsinized, collected, and fixed in ice-cold 75% ethanol at −20 °C overnight. After centrifugation, the fixed cells were rinsed with ice-cold phosphate buffered saline (PBS), and resuspended in 0.5 mL of PBS containing 100 μg/mL RNase, 50 μg/mL propidium iodide (PI) in the dark for 5−10 min. The cell cycle distribution was analyzed by FACS Calibur flow cytometer (BD) and calculated using ModFIT LT software. (b) Apoptosis assay: 1 × 10^5 HepG2 cells were plated in 6-well plates, after incubation for 24 h with complexes 1–3 at 1.0, 2.0 and 5.0 μM, cells were collected, and Apoptosis Detection kit FITC Annexin V was used to analyze the cell apoptosis according to the manufacturer’s instructions.

[12] = tested on: HepG2 cells; assay: Comet assay for DNA damage; format: cell-based, human; design: unit not given here; settings: HepG2, 1.0 μM, 24 h
Description: After the observation of significant S-phase arrest caused by 1–3, the study of DNA damage assay is necessary. The single cell gel electrophoresis technique (comet assay) is a simple, sensitive, reliable, and rapid method to detect DNA damage in eukaryotic cell[39]. As shown in Table 3 and Fig. 6, 1–3 at 1.0 μM induced DNA damage (fragmentation or unwinding) appeared as fluorescent comets with remarkable increase of tails size, especially for 3.
The comet assay is a simple method for measuring DNA strand breaks in cells. The comet assay reagent kit was purchased from Trevigen, and the experiment was carried out according to the manufacturer’s instructions. After treatment with OD and 1–3 at 1.0 μM, HepG2 cells were harvested and suspended at 1 × 10^6 Hep-G2 cells/mL in PBS. The cells suspension was mixed with melted LM agarose at a ratio of 1:10 (v/v). An aliquot (75 μL) of the mixture was immediately pipetted onto the slide (Comet Slide TM). After refrigeration for 30 min, the slide was immersed in pre-chilled lysis solution and left on ice for 60 min, followed by immersing in freshly prepared alkaline solution (300 mM NaOH, 1 mM EDTA, pH > 13) for 60 min on ice in darkness. After DNA unwinding, the slide was subjected to alkaline solution for electrophoresis in a Savant ps 250 system set at 300 mA and 1 volt/cm for 30 min. After electrophoresis, the slide was rinsed with distilled H2O, fixed in 70% ethanol for 5 min and air-dried overnight. DNA was stained with SYBR Green I (Trevigen) and visualized under a fluorescence microscope (Nikon, Eclipse E600).

[13] = tested on: caspase-9; assay: Caspase-9 activation by flow cytometry (CaspGLOW); format: cell-based, human; settings: HepG2, 1.0 μM, 24 h; control 1.9%
Description: as §4, §5

Compound | inhibitive ratio [1] | inhibitive ratio [2] | inhibitive ratio [3] | inhibitive ratio [4] | inhibitive ratio [5] | inhibitive ratio [6] | IC50 [1] | IC50 [2] | IC50 [3] | IC50 [4] | IC50 [5] | IC50 [6] | proportion of activated caspase-8 [9] | proportion of activated caspase-3 [10] | population of apoptotic cells [11] | Comet length [12] | Olive tail moment [12] | Tail length [12] | Tail moment [12] | proportion of activated caspase-9 [13] | further results
[Co+2].[O-][Cl+3]([O-])([O-])[O-].[O-][Cl+3]([O-])([O-])[O-] [Co(ClO4)2, reference compound] | 23.29±0.09% | 21.74±0.03% | 24.74±0.03% | 32.87±0.13% | 45.91±0187% | 36.23±0.09% |  |  |  |  |  |  |  |  |  |  |  |  |  |  | 
[Ni+2].[O-][Cl+3]([O-])([O-])[O-].[O-][Cl+3]([O-])([O-])[O-] [Ni(ClO4)2, reference compound] | 32.31±0.07% | 11.25±0.12% | 16.35±0.09% | 32.57±0.29% | 50.14±0.06% | 37.86±0.19% |  |  |  |  |  |  |  |  |  |  |  |  |  |  | 
[O-][Cl+3]([O-])([O-])[O-].[O-][Cl+3]([O-])([O-])[O-].[Zn+2] [Zn(ClO4)2, reference compound] | 24.07±0.15% | 12.33±0.05% | 17.63±0.07% | 30.94±0.39% | 43.18±0.19% | 28.19±0.13% |  |  |  |  |  |  |  |  |  |  |  |  |  |  | 
N.N.[Cl][Pt][Cl] [cisplatin, reference compound] | 76.07±2.68% | 15.13±0.07% | 65.58±0.09% | 71.93±0.83% | 68.96±1.34% | 75.26±1.00% | 10 ± 0.53 µM | 66000 ± 1530 nM | 16000 ± 1530 nM | 7720 ± 830 nM | 5.18 ± 0.68 µM | 7480 ± 260 nM |  |  |  |  |  |  |  |  | drop in body weight [7]: 25.8%; IR (tumor weight inhibition rate) [8]: 65.8%
[Co(OD)2(H2O)2](ClO4)2 [Complex 1] | 63.96±0.78% | 78.17±1.69% | 61.54±0.33% | 88.34± 1.03% | 56.73±0.14% | 85.35±0.73% | 8.98 ± 0.15 µM | 260 ± 30 nM | 1380 ± 140 nM | 660 ± 110 nM | 8.11 ± 0.55 µM | 450 ± 170 nM | 35.3% | 45.1% | 33.1% | 65.45 ± 6.54 | 3.67 ± 2.09 | 8.01 ± 4.98 | 4.65 ± 1.34 | 27.7% | 
[Ni(OD)2(CH3OH)2](ClO4)2 [Complex 2] | 69.38±0.65% | 84.44±0.65% | 71.86±0.28% | 87.68 ±0.92% | 72.34±0.22% | 82.31±0.60% | 9.66 ± 0.35 µM | 180 ± 30 nM | 2860 ± 290 nM | 200 ± 90 nM | 5.35 ± 0.34 µM | 230 ± 130 nM | 36.7% | 39.9% | 26.1% | 99.56 ± 10.57 | 20.56 ± 7.54 | 45.69 ± 8.27 | 29.52 ± 8.66 | 36.0% | 
